# Data: patent publication US20260209249A1, “NOVEL TRICYCLIC COMPOUND AS KRAS G12D INHIBITOR, AND USE THEREOF” (SK Biopharmaceuticals Co., priority 2022, published 2026)
# Experiments:
# [1] = biological target: T1, GDP-KRAS G12D mutant protein (Homo sapiens, UniProt P01116, G12D); assay: Differential scanning fluorimetry (DSF) binding affinity to GDP-KRAS G12D mutant protein; details: DSF thermal shift, 10 μM compound, 4 μg KRAS protein
# T1 construct: purchased Daegu Gyeongbuk Medical Innovation Foundation (DGMIF), made to order
# Experimental: (§1) Test Example 1: Measurement of Binding Affinity to KRAS G12D Mutant Protein The binding affinities of the compounds according to one embodiment of the present application to the KRAS G12D mutant protein were evaluated using differential scanning fluorimetry (DSF). Differential scanning fluorimetry (DSF) is a method used to study the stability of a protein upon binding to a compound. The experiment can be performed using a real-time PCR (RT-PCR) instrument, and is commonly employed as a screening technique for small-molecule compounds targeting specific proteins. As the temperature increases, folded proteins begin to unfold, during which a hydrophobic dye such as SYPRO Orange binds to the exposed hydrophobic regions of the protein, resulting in a measurable increase in fluorescence intensity (maximum absorption at 470 nm and maximum emission at 570 nm). Protein-compound binding is determined by the difference in the melting temperature (Tm) of the protein in the presence of the compound compared to the Tm in the absence of the compound, expressed as ΔTm. The binding affinity to the KRAS G12D mutant protein was measured using the Protein Thermal Shift Dye kit (#4461146, Applied Biosystems). The GDP-KRAS G12D mutant protein and GppNHp-KRAS G12D mutant protein used in the experiment were recombinant proteins synthesized by the Daegu Gyeongbuk Medical Innovation Foundation (DGMIF) upon request. The analysis of binding between the compound and the KRAS G12D mutant protein was performed according to the following reaction recipe: each test sample contained 4 μg of KRAS protein, 10 μM of the compound, and 2×SYPRO Orange dye. For the GDP-KRAS G12D protein samples, the buffer provided with the Protein Thermal Shift Dye kit was used, while for the GppNHp-KRAS G12D protein samples, 50 mM HEPES (pH 7.5) buffer was used. For the protein-compound binding reaction, the compound was added to the KRAS G12D mutant protein and reacted at room temperature for 30 minutes, followed by the addition of 2×SYPRO Orange dye. The temperature was increased to 25° C.-99° C. (0.05° C./s) using QuantStudiol RT-PCR instrument (Applied Biosystems), and fluorescence was measured using a ROX reporter with filters of 580±10 nm (excitation)/623±14 nm (emission). The measurements obtained at a compound concentration of 10 μM were analyzed using the Protein Thermal Shift Software program (version v1.4, Thermo Fisher Scientific), and the ΔTm (° C.) values, which indicate the binding affinity of the compound to the KRAS G12D mutant protein, were calculated. The DSF measurement results for the compounds according to one embodiment of the present application with respect to the KRAS G12D mutant protein are shown in Table 2.
# [2] = biological target: T2, GppNHp-KRAS G12D mutant protein (Homo sapiens, UniProt P01116, G12D); assay: Differential scanning fluorimetry (DSF) binding affinity to GppNHp-KRAS G12D mutant protein; details: DSF thermal shift, 10 μM compound, 4 μg KRAS protein, 50 mM HEPES (pH 7.5)
# T2 construct: purchased Daegu Gyeongbuk Medical Innovation Foundation (DGMIF), made to order
# Experimental: as §1
SMILES,"GDP-KRAS G12D (ΔTmD, ° C.) [1]","GppNHp-KRAS G12D (ΔTmD, ° C.) [2]"
"C#Cc1c(F)ccc2cccc(-c3cc4nc(OC[C@@]56CCCN5C/C(=C\F)C6)nc(N5[C@@H]6CC[C@H]5CNC6)c4n4ccnc34)c12 [Example 22, 1-((1R,5S)-3,8-diazabicyclo[3.2.1]octan-8-yl)-6-(8-ethynyl-7-fluoronaphthalen-1-yl)-3-(((S,Z)-2-(fluoromethylene)tetrahydro-1H-pyrrolizin-7a(5H)-yl)methoxy)imidazo[1′,2′:1,6]pyrido[3,2-d]pyrimidine]",4.28 °C,1.02 °C
"C#Cc1c(F)ccc2cc(O)cc(-c3c(F)c4nc(N5CC(N(C)C)C5)nc(N5C[C@H]6CC[C@@H](C5)N6)c4c4cn(C)nc34)c12 [Example 72, 4-(9-((1R,5S)-3,8-diazabicyclo[3.2.1]octan-3-yl)-7-(3-(dimethylamino)azetidin-1-yl)-5-fluoro-2-methyl-2H-pyrazolo[4,3-n]quinazolin-4-yl)-5-ethynyl-6-fluoronaphthalen-2-ol]",−0.29 °C,0.00 °C
"Cc1cc(N)nc(-c2cc3nc(OC[C@@]45CCCN4C[C@H](F)C5)nc(N4[C@@H]5CC[C@H]4CNC5)c3n3ccnc23)c1C(F)(F)F [Example 20, 6-(1-((1R,5S)-3,8-diazabicyclo[3.2.1]octan-8-yl)-3-(((2R,7aS)-2-fluorotetrahydro-1H-pyrrolizin-7a(5H)-yl)methoxy)imidazo[1′,2′:1,6]pyrido[3,2-d]pyrimidin-6-yl)-4-methyl-5-(trifluoromethyl)pyridin-2-amine]",−0.17 °C,0.27 °C
"Cc1cc2[nH]ncc2c(-c2cc3nc(OC[C@@]45CCCN4C[C@H](F)C5)nc(N4[C@@H]5CC[C@H]4CNC5)c3n3ccnc23)c1C(F)(F)F [Example 18, 1-((1 R,5S)-3,8-diazabicyclo[3.2.1]octan-8-yl)-3-(((2R,7aS)-2-fluorotetrahydro-1H-pyrrolizin-7a(5H)-yl)methoxy)-6-(6-methyl-5-(trifluoromethyl)-1H-indazol-4-yl)imidazo[1′,2′:1,6]pyrido[3,2-d]pyrimidine]",2.35 °C,1.01 °C
"Cc1cc2c(o1)c(-c1cc(N)ccc1C(F)(F)F)c(F)c1nc(OC[C@@]34CCCN3C[C@H](F)C4)nc(N3CC4CCC(C3)N4)c12 [Example 49, 3-(1-((1R,5S)-3,8-diazabicyclo[3.2.1]octan-3-yl)-5-fluoro-3-(((2R,7aS)-2-fluorotetrahydro-1H-pyrrolizin-7a(5H)-yl)methoxy)-8-methylfuro[3,2-n]quinazolin-6-yl)-4-(trifluoromethyl)aniline]",1.92 °C,0.73 °C
"Cn1cc2c(n1)c(-c1cc(O)cc3ccc(F)c(F)c13)cc1nc(OC[C@@]34CCCN3C/C(=C\F)C4)nc(N3C[C@H]4CC[C@@H](C3)N4)c12 [Example 84, 4-(9-((1R,5S)-3,8-diazabicyclo[3.2.1]octan-3-yl)-7-(((S,Z)-2-(fluoromethylene)tetrahydro-1H-pyrrolizin-7a(5H)-yl)methoxy)-2-methyl-2H-pyrazolo[4,3-f]quinazolin-4-yl)-5,6-difluoronaphthalen-2-ol]",8.13 °C,4.13 °C
"Cc1cc2c(o1)c(-c1nc(N)cc(C)c1C(F)(F)F)c(F)c1nc(OC[C@@]34CCCN3C[C@H](F)C4)nc(N3C[C@H]4CC[C@@H](C3)N4)c12 [Example 60, 6-(1-((1R,5S)-3,8-diazabicyclo[3.2.1]octan-3-yl)-5-fluoro-3-(((2R,7aS)-2-fluorotetrahydro-1H-pyrrolizin-7a(5H)-yl)methoxy)-8-methylfuro[3,2-n]quinazolin-6-yl)-4-methyl-5-(trifluoromethyl)pyridin-2-amine]",0.87 °C,1.61 °C
